{"source": "patent US12462378B2", "about": "“Information processing device, screening device, information processing method, screening method, and program” (Kyoto University, priority 2019, dated 2025)", "key": {"[1]": {"test_system": "nerve cells differentiated from iPS cells", "experiment": "Prediction model MDL score of nerve cell images versus Z-VAD-FMK concentration", "format": "cell-based, human", "conditions": "FIG. 14, higher score = greater probability that the cell will survive", "from_the_text": "Activated caspase-3 in apoptotic nerve cells was detected by using a fluorogenic substrate consisting of a four-amino acid peptide DEVD (SEQ ID NO: 1) bound to a nucleic acid binding dye (product name “CellEvent Caspase-3/7 Green Detection Reagent”, Thermo Fisher Scientific Inc.). Since the DEVD peptides inhibit the binding of fluorescent dyes to DNA, the above-described fluorogenic substrate is essentially non-fluorescent. However, when activated caspase-3 in dead cells cleaves the DEVD peptide, a fluorescent dye binds to the DNA to cause fluorescence, which can be detected using a standard FITC green filter set of a standard time lapse imaging system (product name “Incucyte ZOOM”, Essen Bioscience, Ltd.) (exposure time 400 ms). Images were photographed over time every 6 hours after drug administration.\nThe original size of the single-well image captured by using the time lapse imaging system (product name “Incucyte ZOOM”, Essen Bioscience, Ltd.) was 1,392×1,038 pixels, and four images were cut out from this image and extracted as the cropped image IMGC. The original image was divided evenly into four regions, and square images were taken out from the center of each region. The size of the trimmed cropped image IMGC was selected from 128×128, 256×256, 512×512, 768×768, and 1,020×1,020 in width×height. […]"}, "[2]": {"test_system": "nerve cells differentiated from iPS cells", "experiment": "Single cell analysis (single cell RNA sequence, UMAP clustering) of nerve cells with Z-VAD-FMK", "format": "cell-based, human", "protocol": "FIG. 15 is a view showing the schematics of a proposed method. As illustrated in the drawing, Z-VAD-FMK is added to nerve cells and changes in gene expression of individual cells are observed before cell death occurs (before caspase-3 activation occurs) (single cell RNA sequence=WHAT in the drawing). At the same time, the images are acquired, and the CNN-based prediction model MDL is used to check where the changes are occurring (WHERE in the drawing). In this manner, a method for identifying the molecules, where and what is occurring before cell death, is proposed.\nSingle cell analysis was performed using the above-described proposed method. FIG. 16 is a view illustrating an example of clustering results of cells. While changing the concentration of Z-VAD-FMK added to the nerve cells to 0 [μM], 0.2 [μM], and 25 [μM], the cell population was separated into a total of 15 types of clusters ranging from 0 to 14 by using a visualization method (one type of dimensional compression method) which is called UMAP (uMAP).\nFIG. 22 is a view illustrating a relationship between the Z-VAD-FMK concentration and the cluster size. […] As a result, the cluster 12 was identified as a cluster that satisfies the conditions."}}, "note": "Where a SMILES comes first, the peptide text is derived from it. The star is where a group is joined. Cbz = O=C(OCc1ccccc1)*; CH2F = FC*", "data": [{"smiles": "COC(=O)C[C@H](NC(=O)[C@H](C)NC(=O)[C@@H](NC(=O)OCc1ccccc1)C(C)C)C(=O)CF", "note": "[Z-VAD-FMK] (Cbz-Val-Ala-Asp(OMe)-CH2F)", "values": [{"measurement": "score of the prediction model MDL (probabilistic value related to the life or death of cells)", "setting": "[1]", "result": "the higher the Z-VAD-FMK concentration, the higher the score"}, {"measurement": "effect of Z-VAD-FMK concentration on cluster shapes of UMAP expanded cell populations", "setting": "[2]; 0, 0.2 and 25 μM Z-VAD-FMK, 15 clusters (0 to 14), FIGS. 16 to 21", "result": "no effect on most of the cell populations"}, {"measurement": "cluster size (number of cells in cluster 12, caspase-3 activated)", "setting": "[2]; cluster 12, with addition of Z-VAD-FMK, FIG. 22", "result": "the number of cells in its own cluster decreased with the addition of Z-VAD-FMK"}]}]}
